Here are results for one substance from US20250281610A1, “P2RY2 ACTIVITY MODULATORS” (Deutsches Krebsforschungszentrum Stiftung des öffentlichen …, priority 2022, published 2025).

One assay deals with BxPC3 cells. Description: Viability of BxPC3 cells in co-culture with MART-1-specific TCR-T cells (CellTiter-Blue). Format: cell-based, human. The following applies: single agent: 5 μM AR-C, 10 μg/ml atezolizumab or 10 μg/ml durvalumab, 6-24 hours (FIG. 11). From the text: FIG. 11. […] Untreated cells served as the control.
(§1) MART-1 specific T cells were generated as described (Mezzadra et al., Nature 549, 106-110 (2017); Jorritsma et al., Blood 110 (10): 3564-3572. (2007)). To generate CD33-specific chimeric antigen receptor (CAR) T cells, a CD33Hul95-CD28Z CAR (described in WO 2019/178382) cassette was cloned into a retroviral vector, and the resulting virus was used to transduce T cells as described (Mezzadra et al., Nature 549, 106-110 (2017); Jorritsma et al., Blood 110 (10): 3564-3572. (2007)).
(§2) MART1-specific CD8+ T cells and MART1 epitope-expressing cancer cells were mixed at a ratio of 1:16 to 1:4. Next, cells were centrifugated at 1,600 g for 3 min and incubated at 37° C. and 5% CO2 for 12-72 hours. T cell activation was assessed by surface staining with anti-CD137-BV421 (4-1BB, Biolegend), anti-CD69-APC/Fire™ 750 (FN50, Biolegend), anti-CD25-AF700 (BC96, Biolegend) antibodies and intracellular staining with anti-IL-2-PE/Cy7 (MQ1-17H12, Biolegend), anti-IFN-7-BV421 (4S.B3, Biolegend), anti-TNF-α-BV785 (MAb11, Biolegend) antibodies, followed by flow cytometry analysis. For intracellular staining, brefeldin A (Biolegend) was added to the cell culture medium 4 h before cells were harvested. The viability of cancer cells that grow in suspension including THP-1 cells was assessed by flow cytometry-based absolute cell counting using AccuCount beads (Spherotech). For adherent cancer cells including BxPC3 and MCF7, the cell viability was quantified using CellTiter-Blue Cell Viability Assay (Promega).

Assay [1] concerns MART-1-specific TCR transduced T cells cultured with MART-1-epitope transduced BxPC3 cells. Description: T cell activation markers in co-culture of MART-1-specific TCR-T cells with MART-1+ BxPC3 cells. The assay is classed as cell-based, human. Conditions: single agent: 5 μM AR-C, 10 μg/ml atezolizumab or 10 μg/ml durvalumab, 6-24 hours, CD8+ MART-1-specific TCR+ population (FIG. 10).
From the text: FIG. 10. […] Untreated cells served as the control.
as §1
as §2, with “Next, cells were centrifugated at 1,600 g for 3 min and incubated at 37° C. and 5% CO2 for 12-72 hours.” left out

For the substance “durvalumab: Blocking antibody of the PD-L1-PD-1 immune checkpoint”, in the assay with BxPC3 cells, the “viability of BxPC3 cells” value is “reduced”. Also, in assay [1], the “expression of CD25 on T cells” value is listed as “elevated”, the “expression of CD69 on T cells” value is reported as “elevated” and the “expression of CD137 on T cells” value was “elevated”.
